Patent US7173021B2, “Synthesis of temozolomide esters as potent anticancer pro-drugs for topical and transdermal applications in treatments of cancers” (Tianjin North Pharm Sci-Tech Co., Ltd., priority 2004, dated 2007)
Converted amounts (≈) assume the structure as drawn.

Assays:
[1] = In vitro permeation and metabolism, Franz diffusion cell, full-thickness rat skin; assay type: in vitro ADME; settings: 37° C., 8 h, FIGS. 6-8
Source text: (§1) Jacketed Franz-type diffusion cells were used throughout the study and the barrier (12) (skin or silicone membrane) was mounted between the two chambers (14, 16) (2.8–3.4 cm^2 available surface area) with the dermal side in contact with the receiver solution (FIG. 2). The diffusion chambers (10) comprised a barrier of skin or silicone membrane (12) mounted between two chambers (14, 16). A cap (18) formed the donor compartment (14). The second receptor compartment (16) contained a receptor cell (20) with a stirring bar (22), sampling port (24) and cover (26). The stirring bar (22) was stirred by means of a magnet plate (28) having a rotating magnet. The receptor compartment comprised a water jacket (30) having a water inlet (32) and a water outlet (34).
Three types of materials were used in permeation studies. • 1. […]
(§2) The membrane (as detailed above) was mounted on the diffusion cell (10), on which the surface area available for diffusion of each cell was about 2.8–3.4 cm^2. […] The concentration of each sample solution was determined by using HPLC. […]
As stated above, after the removal of receptor solution, the receiver compartment was refilled with an identical volume of receptor fluid. […] As a consequence, it was necessary to mathematically correct each successive sample concentrations, in the present invention, which was determined by applying the following equation: […]

[2] = In vitro permeation and metabolism, Franz diffusion cell, human skin; assay type: in vitro ADME
Source text: as §1
(§3) Three types of materials were used in permeation studies. • 1. Silicone membrane (Silastic Medical Grade, 500-5, Dow Corning 0.005 in thick) was cut into circular sections (2 cm diameter) and washed with double distilled water prior to use. • 2. Full-thickness rat skin was obtained from Male Wistar rats aged 10 to 12 weeks and weighing 250 to 300 g, which were sacrificed by cervical dislocation, the abdomen shaved and the intact skin removed by dissection. Following removal of fat tissue, the skin was cut into circular pieces and used immediately. • 3. Samples of adult human epidermis were purchased from the Stephen Kirby Skin Bank (UK). The samples were from the leg, were stored at −18° C. and used within one week. Experiments
as §2, with “cm^2. The cell cap (18) was placed on the membrane (12), and it was sealed with Parafilm® connecting the cell cap, membrane, and receptor cell.” for “cm^2.”
As stated above, after the removal of receptor solution, the receiver compartment was refilled with an identical volume of receptor fluid. […] As a consequence, it was necessary to mathematically correct each successive sample concentrations, in the present invention, which was determined by applying the following equation:
(§4) [formula] where Ct is the actual current concentration of drug in the receptor phase at time t, Cmt is the apparent (i.e. measured) current concentration of drug in the receptor phase, Vs is the sample volume withdrawn for analysis, Vr is the volume of receptor solution, and ΣCm is the summed total of the previous measured concentrations.
(§5) Finally, the amount of drug penetrating the skin per unit area was calculated by dividing the obtained concentrations by the surface area available for diffusion cell and this value was different for each individual cell. […]

[3] = test system: A549 (human non small lung); test: In vitro tumour cell growth inhibition (MTT), A549; assay type: cell-based; settings: Table 1 experiment, 96 h
Description: (§6) Temozolomide (white powder), temozolomide acid (white powder) and temozolomide-8-carboxylate hexyl (white scale crystal) were made in house. For the estimation of in vitro tumour cell growth inhibition, MV3 (human melanoma), M14 (human melanoma), B16 and B16-BL6 (mouse melanoma), SHG-44, TJ899 and TJ905 (human glioma), MCF-7 (human breast), HCT-8 (human colon), A549 (human non small lung), Bel7402 (human hepatocellulor), and BGC-823 (human stomach) were used. All tumour cells were cultured in RPMI-1640 medium supplemented with 10% fetal bovine serum (FBS) at 37° C. in a humidified 5% CO2 incubator.
(§7) After being harvested from culture flasks, a cell suspension of 1×10^4/ml was made by using 1640 RPMI medium supplemented with 10% fetal bovine serum. 100 μl (contains 1000 tumour cells) of the cell suspension was seeded per well of 96-well flat-bottom Costar culture plates at 37° C. in a humidified 5% CO2 incubator for 24 hrs before introducing drugs. Each tested compounds was made for five different concentrations and 100 μl of the each concentration was introduced into parallel three wells; control wells were added with 100 μl of plain medium alone; fluorouracil (a chemotherapeutic antitumour drug) was used as the positive control. Cells were then incubated for 96 h. Proliferative response and cell death were determined using MTT (3-(4,5-dimethylthiazolyl)-2,5-diphenyl-tetrazolium bromide) assay.
(§8) MTT assay: Following incubation of cells with the tested compounds for 96 h, 100 μl of 0.4 mg/ml MTT in RPMI 1640 was added to each well and the plate was incubated at 37° C. for 4 h. The plate was then centrifuged and followed by removal of medium. 150 μl of DMSO was then added to dissolve formazan crystal. DMSO-added plates were placed on a plate shaker for 5 min and absorbance was measured spectrophotometrically at 540 nm (with reference wavelength at 450 nm) using a Benchmark microtiter plate reader (Bio-Rad 550, Bio-Rad Laboratories, CA, U.S.A.).
The IC50 was calculated from the curve of the tested compound concentrations against the inhibition rate of the tumour cells. […]

MV3 (human melanoma) = test: In vitro tumour cell growth inhibition (MTT), MV3; assay type: cell-based; settings: Homo sapiens, 96 h
Description: as §6, §7, §8
The IC50 was calculated from the curve of the tested compound concentrations against the inhibition rate of the tumour cells. Table 1 summarized the experiment results by using six human cancer cell lines, HCT-8 (colon carcinoma), A549 (non small lung carcinoma), MCF-7 (breast), Bel7402 (hepatocellulor carcinoma), BGC-823 (stomach adenocarcinoma), and MV3 (melanoma). Table 2 summarized the results from the experiment results by using two human melanoma cell lines, MV3 and M14, two mouse melanoma cell lines, B16 and B16-BL6, and three human glioma cell lines, TJ899, SHG-44 and TJ905.

[4] = In vitro permeation, Franz diffusion cell, silicone membrane; assay type: in vitro ADME; settings: 37° C., 8 h, FIGS. 3-5
Source text: as §1, §3
The membrane (as detailed above) was mounted on the diffusion cell (10), on which the surface area available for diffusion of each cell was about 2.8–3.4 cm^2. The cell cap (18) was placed on the membrane (12), and it was sealed with Parafilm® connecting the cell cap, membrane, and receptor cell. The capacity of each receptor cell was around 25–26 ml, which was filled with receptor solution and was completely in contact with the membrane sheet. During the course of experiment, the solution was continuously stirred by teflon-coated magnetic bar (22) placed in the cell (20). The temperature was maintained at 37° C. by a thermostatic water pump that circulated the water through the jacket (30) surrounding the cell body. The system was allowed to equilibrate under these conditions for half an hour. Finally, the prepared sample solution (2 ml) was added into the donor cap cell, and it was sealed with Parafilm® to minimize the evaporation of donor solution. 1 ml of receptor solution was removed every 30 minutes for 5 hours and then every 60 minutes for a further 3 hours. The volumes withdrawn were always replaced with equal volumes of fresh receptor solution to maintain constant volume. The concentration of each sample solution was determined by using HPLC.
For every sample, six determinations were performed on human and rat skin, and three determinations were carried out through artificial silicone membrane.
As stated above, after the removal of receptor solution, the receiver compartment was refilled with an identical volume of receptor fluid. This causes of the dilution of receptor solution leading to an under determination of the sample concentration. As a consequence, it was necessary to mathematically correct each successive sample concentrations, in the present invention, which was determined by applying the following equation:
as §4, §5

Permeation through full-thickness rat skin (cumulative amount permeated %) [1]: maximum value
Permeation through human skin ([2]; 37° C., FIG. 9): notably better than temozolomide
IC50 [3]: 26.6 mg/L (≈ 95.4 µM)
IC50 (MV3 (human melanoma); Table 1 experiment): 8.84 mg/L (≈ 31.6 µM)
IC50 (MV3 (human melanoma); Table 2 experiment (separate)): 25 mg/L (≈ 89.5 µM)
SMILES: CCCCCCOC(=O)c1ncn2c(=O)n(C)nnc12 [temozolomide hexyl ester, Hexyl 3,4-dihydro-3-methyl-4-oxoimidazo[5,1-d]-1,2,3,5-tetrazine-8-carboxylate]
Metabolism within human skin to temozolomide acid ([2]; human skin): completely metabolized into the temozolomide acid
Permeation through synthetic silicone membrane [4]: passed through the membrane far more efficiently
